Test results taken from US8765767B2, “Positive allosteric modulators of mGluR2” (Bristol-Myers Squibb Company, priority 2012, dated 2014).

Biological target: T1, human mGluR2 (Homo sapiens, UniProt Q14416)
T1 construct: expressed in transfected cells; host or cells: HEK293 clonal line
Experiment: mGluR2 cAMP assay (HTRF) in HEK293 cells clonally expressing human mGluR2
Format: cell-based
Settings: HEK293 cells expressing human mGluR2, 1 μM forskolin, 1 μM LY-341495, 30 min
Procedure: • Cell Culture. Clonally expressed human mGluR2 in HEK293 background was glutamate starved overnight in media without glutamine (GIBCO MEM 12360), containing 10% FBS, 1% penicillin streptomycin. • cAMP Measurement. On the day of the assay, media was removed, cells washed with PBS, cells harvested and pelleted by centrifugation. Cell pellets were resuspended in stimulation buffer without forskolin and counted. A solution of 1.25×10^6 cells/mL was prepared and dispensed to plates using a Combi liquid handler (Thermo). A standard curve was created using a top concentration of cAMP of 1 μM in the stimulation buffer, 1:3 dilutions over 14 points in the absence of cells. Plates were read by time-resolved fluorescence at […] and a ratio was calculated via in house software, (665 nM/618 nM)*10^4. In house software converted the fluorescence value ratios to units of cAMP concentration, which is then used to calculate % inhibition for each test compound. • MGluR2 cAMP Assay Materials and Methods. Compounds were added to white, standard volume 384 non-binding surface plates (Corning 3574). Cells were resuspended in stimulation buffer consisting of Hanks Balanced Salt Solution (14175-095) pH 7.0, 20 mM HEPES, 2.0 mM CaCl2, 5.0 mM MgCl2, and 1 mM IBMX (Sigma 15879), 1 μM forskolin, and 1 μM LY-341495 for 30 min. Buffer without forskolin was used as a negative control. Solutions of D2 and cryptate detection reagents from the CISBIO dynamic cAMP kit (62AM4PEJ) were diluted 1:40 in lysis buffer. Lysis buffer consisted of 50 mM Phosphate Buffer pH 7.0, 800 mM Potassium Fluoride, 0.2% BSA, and 1.0% Triton. Assay reaction was terminated by addition of detection reagents in lysis buffer. One hour later, plates were read on a PE Viewlux. Data was extracted, and concentration response curves generated by fitting the data to a standard 4 parameter logistic equation from which EC50 values were determined.

T1 sequence (Q14416 19-872): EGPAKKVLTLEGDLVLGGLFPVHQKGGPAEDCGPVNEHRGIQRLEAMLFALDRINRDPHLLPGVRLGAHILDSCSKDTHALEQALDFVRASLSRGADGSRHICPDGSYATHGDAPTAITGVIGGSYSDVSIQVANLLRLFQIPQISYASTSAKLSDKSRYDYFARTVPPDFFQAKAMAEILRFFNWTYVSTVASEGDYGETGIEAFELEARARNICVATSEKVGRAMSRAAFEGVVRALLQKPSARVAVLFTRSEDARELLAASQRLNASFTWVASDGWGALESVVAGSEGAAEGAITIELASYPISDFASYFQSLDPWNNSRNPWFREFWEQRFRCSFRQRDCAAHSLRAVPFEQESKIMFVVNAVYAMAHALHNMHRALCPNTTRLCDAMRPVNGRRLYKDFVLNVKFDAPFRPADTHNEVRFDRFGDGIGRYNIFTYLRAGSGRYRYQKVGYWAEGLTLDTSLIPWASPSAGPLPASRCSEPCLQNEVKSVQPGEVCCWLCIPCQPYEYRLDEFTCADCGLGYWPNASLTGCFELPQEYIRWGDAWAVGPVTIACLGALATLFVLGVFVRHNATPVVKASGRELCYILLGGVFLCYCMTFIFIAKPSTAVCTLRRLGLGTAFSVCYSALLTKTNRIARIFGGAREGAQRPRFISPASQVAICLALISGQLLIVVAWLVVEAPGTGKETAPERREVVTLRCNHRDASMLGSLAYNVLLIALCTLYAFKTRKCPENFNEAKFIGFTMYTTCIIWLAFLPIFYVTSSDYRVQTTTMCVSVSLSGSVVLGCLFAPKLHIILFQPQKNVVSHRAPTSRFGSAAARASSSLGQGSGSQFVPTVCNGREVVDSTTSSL

Structure (SMILES)	EC50 [µM]
COc1cccc([C@H]2C[C@@H]2CNc2ccn3c(CC4CC4)nnc3c2Cl)c1 [Example 8, 8-Chloro-3-(cyclopropylmethyl)-N-(((1S,2S)-2-(3-methoxyphenyl)cyclopropyl)methyl)-[1,2,4]triazolo[4,3-a]pyridin-7-amine]	0.012
N#Cc1c(NCC2CC2c2ccc(F)cc2)ccn2c(CC(F)(F)F)cnc12 (centres unmarked) [Example 30, 7-(((2-(4-Fluorophenyl)cyclopropyl)methyl)amino)-3-(2,2,2-trifluoroethyl)imidazo[1,2-a]pyridine-8-carbonitrile]	0.108
N#Cc1c(NCC2CC2c2ccccc2OC(F)(F)F)ccn2c(CC(F)(F)F)cnc12 (centres unmarked) [Example 28, 3-(2,2,2-Trifluoroethyl)-7-(((2-(2-(trifluoromethoxy)phenyl)cyclopropyl)methyl)amino)imidazo[1,2-a]pyridine-8-carbonitrile]	0.059
Fc1ccc([C@@H]2C[C@H]2CNc2ccn3c(CC4CC4)nnc3c2C(F)(F)F)cc1 [Example 22, 3-(Cyclopropylmethyl)-N-(((1R,2R)-2-(4-fluorophenyl)cyclopropyl)methyl)-8-(trifluoromethyl)-[1,2,4]triazolo[4,3-a]pyridin-7-amine]	0.001
Fc1ccc([C@@H]2C[C@H]2CNc2ccn3c(CC(F)(F)F)cnc3c2C(F)(F)F)cc1 (stereo in doubt) [Example 32, N-(((1R,2R)-2-(4-Fluorophenyl)cyclopropyl)methyl)-3-(2,2,2-trifluoroethyl)-8-(trifluoromethyl)imidazo[1,2-a]pyridin-7-amine]	0.044
COc1cccc(F)c1C1CC1CNc1ccn2c(CC(F)(F)F)cnc2c1C#N (centres unmarked) [Example 27, 7-(((2-(2-Fluoro-6-methoxyphenyl)cyclopropyl)methyl)amino)-3-(2,2,2-trifluoroethyl)imidazo[1,2-a]pyridine-8-carbonitrile]	0.02
Clc1c(NC[C@H]2C[C@@H]2c2cccc3c2CCO3)ccn2c(CC3CC3)nnc12 [Example 11, 8-Chloro-3-(cyclopropylmethyl)-N-(((1S,2S)-2-(2,3-dihydrobenzofuran-4-yl)cyclopropyl)methyl)-[1,2,4]triazolo[4,3-a]pyridin-7-amine]	0.012
CN(C[C@H]1C[C@@H]1c1ccc(F)cc1)c1ccn2c(CC(F)(F)F)nnc2c1C(F)(F)F [Example 41, N-(((1S,2S)-2-(4-fluorophenyl)cyclopropyl)methyl)-N-methyl-3-(2,2,2-trifluoroethyl)-8-(trifluoromethyl)-[1,2,4]triazolo[4,3-a]pyridin-7-amine]	0.002
Fc1cnc(C2CC2CNc2ccn3c(CC4CC4)nnc3c2C(F)(F)F)nc1 (centres unmarked) [Example 13, 3-(Cyclopropylmethyl)-N-((2-(5-fluoropyrimidin-2-yl)cyclopropyl)methyl)-8-(trifluoromethyl)-[1,2,4]triazolo[4,3-a]pyridin-7-amine]	0.102
COc1cccc(F)c1[C@H]1C[C@@H]1CNc1ccn2c(CC3CC3)nnc2c1Cl [Example 33, 8-Chloro-3-(cyclopropylmethyl)-N-(((1S,2S)-2-(2-fluoro-6-methoxyphenyl)cyclopropyl)methyl)-[1,2,4]triazolo[4,3-a]pyridin-7-amine]	0.001
Fc1ccc(C2CC2CNc2ccn3c(CC4CC4)nnc3c2Cl)cc1 (racemic) [Example 1, 8-chloro-3-(cyclopropylmethyl)-N-((2-(4-fluorophenyl)cyclopropyl)methyl)-[1,2,4]triazolo[4,3-a]pyridin-7-amine]	0.009
N#Cc1ccccc1C1CC1CNc1ccn2c(CC3CC3)nnc2c1Cl (centres unmarked) [Example 17, 2-(2-(((8-chloro-3-(cyclopropylmethyl)-[1,2,4]triazolo[4,3-a]pyridin-7-yl)amino)methyl)cyclopropyl)benzonitrile]	0.006
Fc1ccc(C2CC2CNc2ccn3c(CC(F)(F)F)cnc3c2C(F)(F)F)cc1 (centres unmarked) [Example 25, N-((2-(4-Fluorophenyl)cyclopropyl)methyl)-3-(2,2,2-trifluoroethyl)-8-(trifluoromethyl)imidazo[1,2-a]pyridin-7-amine]	0.041
N#Cc1c(NCC2CC2c2cccc(F)c2)ccn2c(CC(F)(F)F)cnc12 (centres unmarked) [Example 26, 7-(((2-(3-Fluorophenyl)cyclopropyl)methyl)amino)-3-(2,2,2-trifluoroethyl)imidazo[1,2-a]pyridine-8-carbonitrile]	0.054
Clc1c(NC[C@H]2C[C@@H]2c2cccc3c2OCC3)ccn2c(CC3CC3)nnc12 [Example 35, 8-Chloro-3-(cyclopropylmethyl)-N-(((1S,2S)-2-(2,3-dihydrobenzofuran-7-yl)cyclopropyl)methyl)-[1,2,4]triazolo[4,3-a]pyridin-7-amine]	0.003
Fc1ccc([C@H]2C[C@@H]2CNc2ccn3c(CC4CC4)nnc3c2C(F)(F)F)cc1 [Example 20, 3-(Cyclopropylmethyl)-N-(((1S,2S)-2-(4-fluorophenyl)cyclopropyl)methyl)-8-(trifluoromethyl)-[1,2,4]triazolo[4,3-a]pyridin-7-amine]	0.002
CC(Nc1ccn2c(CC3CC3)nnc2c1Cl)[C@@H]1C[C@H]1c1ccc(F)cc1 (stereo partly drawn) [Example 14, 8-Chloro-3-(cyclopropylmethyl)-N-(1-((1R,2R)-2-(4-fluorophenyl)cyclopropyl)ethyl)-[1,2,4]triazolo[4,3-a]pyridin-7-amine]	0.055
Fc1ccccc1[C@H]1C[C@@H]1CNc1ccn2c(CC3CC3)nnc2c1Cl [Example 37, 8-Chloro-3-(cyclopropylmethyl)-N-(((1S,2S)-2-(2-fluorophenyl)cyclopropyl)methyl)-[1,2,4]triazolo[4,3-a]pyridin-7-amine]	0.004
Clc1c(NC[C@@H]2C[C@H]2c2cccc3c2OCC3)ccn2c(CC3CC3)nnc12 [Example 36, 8-Chloro-3-(cyclopropylmethyl)-N-(((1R,2R)-2-(2,3-dihydrobenzofuran-7-yl)cyclopropyl)methyl)-[1,2,4]triazolo[4,3-a]pyridin-7-amine]	0.002
Clc1c(NCC2CC2c2cccnc2)ccn2c(CC3CC3)nnc12 (centres unmarked) [Example 19, 8-chloro-3-(cyclopropylmethyl)-N-((2-(pyridin-3-yl)cyclopropyl)methyl)-[1,2,4]triazolo[4,3-a]pyridin-7-amine]	0.367
COc1ccccc1C1CC1CNc1ccn2c(CC(F)(F)F)cnc2c1C#N (centres unmarked) [Example 29, 7-(((2-(2-Methoxyphenyl)cyclopropyl)methyl)amino)-3-(2,2,2-trifluoroethyl)imidazo[1,2-a]pyridine-8-carbonitrile]	0.081
CC(Nc1ccn2c(CC3CC3)nnc2c1Cl)[C@H]1C[C@@H]1c1ccc(F)cc1 (stereo partly drawn) [Example 15, 8-Chloro-3-(cyclopropylmethyl)-N-(1-((1S,2S)-2-(4-fluorophenyl)cyclopropyl)ethyl)-[1,2,4]triazolo[4,3-a]pyridin-7-amine]	0.031
FC(F)(F)Oc1ccccc1[C@@H]1C[C@H]1CNc1ccn2c(CC3CC3)nnc2c1Cl (relative stereo) [Example 9, Trans-8-chloro-3-(cyclopropylmethyl)-N-((2-(2-(trifluoromethoxy)phenyl)cyclopropyl)methyl)-[1,2,4]triazolo[4,3-a]pyridin-7-amine]	0.004
Fc1ccc([C@H]2C[C@@H]2CNc2ccn3c(CC4CC4)nnc3c2Cl)cc1 [Example 5, 8-Chloro-3-(cyclopropylmethyl)-N-(((1S,2S)-2-(4-fluorophenyl)cyclopropyl)methyl)-[1,2,4]triazolo[4,3-a]pyridin-7-amine]	0.005
Clc1c(NC[C@H]2CCC[C@@H]2c2ccccc2)ccn2c(CC3CC3)nnc12 (single isomer, unassigned) [Example 45]	0.012
Fc1ccc([C@H]2C[C@@H]2CNc2ccn3c(CC(F)(F)F)cnc3c2C(F)(F)F)cc1 (stereo in doubt) [Example 31, N-(((1S,2S)-2-(4-Fluorophenyl)cyclopropyl)methyl)-3-(2,2,2-trifluoroethyl)-8-(trifluoromethyl)imidazo[1,2-a]pyridin-7-amine]	0.024
Clc1c(NC[C@@H]2C[C@H]2c2ccccc2)ccn2c(CC3CC3)nnc12 (relative stereo) [Example 4, Trans-8-chloro-3-(cyclopropylmethyl)-N-((2-phenylcyclopropyl)methyl)-[1,2,4]triazolo[4,3-a]pyridin-7-amine]	0.005
FC(F)Oc1ccccc1[C@@H]1C[C@H]1CNc1ccn2c(CC3CC3)nnc2c1Cl (relative stereo) [Example 7, Trans-8-chloro-3-(cyclopropylmethyl)-N-((2-(2-(difluoromethoxy)phenyl)cyclopropyl)methyl)-[1,2,4]triazolo[4,3-a]pyridin-7-amine]	0.006
Fc1ccc(F)c([C@@H]2C[C@H]2CNc2ccn3c(CC4CC4)nnc3c2Cl)c1 [Example 44, 8-Chloro-3-(cyclopropylmethyl)-N-(((1R,2R)-2-(2,5-difluorophenyl)cyclopropyl)methyl)-[1,2,4]triazolo[4,3-a]pyridin-7-amine]	0.002
